Measurements: paper PMC8954540, “A New Class of PSMA-617-Based Hybrid Molecules for Preoperative Imaging and Intraoperative Fluorescence Navigation of Prostate Cancer” (Pharmaceuticals, 2022)
Starred links: 1 amine or outer side, 2 acyl side, 3 side chain; linkers in the order of their positions; H or OH if unused. Non-standard residues stand in square brackets, D forms with d. Residues, ends and D or L forms follow the SMILES beside them. *: point of attachment. FITC = O=C1OC2(c3ccc(O)cc3Oc3cc(O)ccc32)c2ccc(NC(=S)*)cc21; DOTA = O=C(O)CN1CCN(CC(=O)O)CCN(CC(=O)*)CCN(CC(=O)O)CC1; X2 = O=C(O)CCC(NC(=O)NC(CCCCN*)C(=O)O)C(=O)O; 2Nal = N[CH](Cc1ccc2ccccc2c1)C(=O)O; X1 = O=C(C1CCC(CN[*:1])CC1)[*:2]

Key:
LNCaP cells [1] = tested on: LNCaP cells; set-up: method as in PMID 26878194; settings: cited from earlier work
[2] = tested on: LNCaP-tumor bearing BALB/c nu/nu mice; settings: cited from earlier work; for tumor enhancement after dye conjugation: compared with PSMA-927
[3] = set-up: method as in PMID 25883127; settings: n-octanol/PBS; cited from earlier work
LNCaP cells [4] = test: Specific cell surface binding and internalization of 68Ga-labeled compounds; assay type: cell-based; settings: 68Ga-labeled compounds; blockage with 500 µmol/L 2-PMPA; mean ± SD, n = 3
Description: (§1) LNCaP cells (CRL-1740; ATCC; PSMA-positive) and PC-3 cells (CRL-1435; ATCC; PSMA-negative) were cultured in RPMI medium (Thermo Fisher Scientific, Waltham, MA, USA) supplemented with 10% fetal calf serum and 2 mmol/L L-glutamine (all from (Thermo Fisher Scientific, Waltham, MA, USA) ) at 37 °C in humidified air with 5% CO2. Cells were harvested using trypsin-ethylenediaminetetraacetic acid (trypsin-EDTA; 0.25% trypsin, 0.02% EDTA, Invitrogen, Waltham, MA, USA). Cell line authentication was regularly performed. Binding affinities and internalization profiles of the ^68Ga-labeled compounds were determined in competitive cell binding assays and internalization experiments as described previously.

[5] = Lipophilicity, logD at pH 7.4 in n-octanol/PBS; assay type: physicochemical; settings: 68Ga-labeled ligand
Description: The synthesis was performed according to previously published protocols. Details on synthesis and analytical data of the compounds are provided in the Supplementary Materials (Compound Synthesis and Analytical Characterization). […] Using 30% NaOH (Sigma-Aldrich, Darmstadt, Germany) and 10% NaOH (Sigma-Aldrich, Darmstadt, Germany), the pH was adjusted to 3.8. The reaction mixture was incubated at 98 °C for 5–10 min. The radiochemical yield was analyzed by reversed-phase high-performance liquid chromatography (RP-HPLC) or reversed-phase thin-layer chromatography (RP-TLC, 60 RP-18 F254S, Sigma-Aldrich, Darmstadt, Germany) with 0.5 M ammonium acetate/methanol (1:1) as the mobile phase. The lipophilicity of the ^68Ga-labeled compounds was determined using the 2-phase system n-octanol and PBS.

PSMA = biological target: T1, PSMA (Homo sapiens, UniProt Q04609); test: Competitive cell binding assay (radioligand 68Ga-PSMA-10); settings: free ligands, mean ± SD, n = 3; for Ki: Ki=IC50/(1+cradioligand/Kd); for IC50: radioligand 68Ga-PSMA-10, 0.75 nmol/L
T1 construct: LNCaP cells (CRL-1740; ATCC; PSMA-positive); host or cells: LNCaP cells
T1 sequence (Q04609 whole entry): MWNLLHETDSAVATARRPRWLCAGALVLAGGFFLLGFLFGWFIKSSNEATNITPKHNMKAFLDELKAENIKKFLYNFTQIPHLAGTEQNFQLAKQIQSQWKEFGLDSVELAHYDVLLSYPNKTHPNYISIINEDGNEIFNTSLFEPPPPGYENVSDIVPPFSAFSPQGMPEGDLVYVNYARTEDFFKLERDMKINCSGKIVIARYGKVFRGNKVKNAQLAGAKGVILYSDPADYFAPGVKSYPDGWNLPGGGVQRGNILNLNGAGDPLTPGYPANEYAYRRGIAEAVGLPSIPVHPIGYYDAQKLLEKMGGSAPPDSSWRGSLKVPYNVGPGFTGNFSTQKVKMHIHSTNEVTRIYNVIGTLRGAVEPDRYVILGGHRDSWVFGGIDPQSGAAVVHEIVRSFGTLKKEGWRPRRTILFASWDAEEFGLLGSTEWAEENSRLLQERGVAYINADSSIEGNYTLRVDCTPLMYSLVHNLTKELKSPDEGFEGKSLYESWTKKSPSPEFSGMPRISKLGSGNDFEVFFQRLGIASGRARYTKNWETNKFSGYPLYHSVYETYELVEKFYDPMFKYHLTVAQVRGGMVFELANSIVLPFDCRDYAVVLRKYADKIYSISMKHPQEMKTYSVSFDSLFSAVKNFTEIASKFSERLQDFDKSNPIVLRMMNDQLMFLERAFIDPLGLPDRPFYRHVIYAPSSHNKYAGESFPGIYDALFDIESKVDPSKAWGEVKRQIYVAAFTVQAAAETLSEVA
Description: as §1

[6] = set-up: method as in PMID 29752180; settings: twelve weeks after the first dose; cited from earlier work
[7] = set-up: method as in PMID 34161051; settings: 831 patients; cited from earlier work
[8] = set-up: method as in PMID 16194449; settings: free dye; cited from earlier work

O=C([O-])CN1CCN(CC(=O)[O-])CCN(CC(=O)NCC2CCC(C(=O)NC(Cc3ccc4ccccc4c3)C(=O)NCCCCC(NC(=O)NC(CCC(=O)O)C(=O)O)C(=O)O)CC2)CCN(CC(=O)[O-])CC1.[68Ga+3] (stereo not drawn) [[^68Ga]Ga-PSMA-617]
cell surface binding (LNCaP cells [1]): 11.40 ± 6.60 %ID/10^5 LNCaP cells | specific internalization (LNCaP cells [1]): 16.17 ± 3.66 %ID/10^5 LNCaP cells | tumor uptake ([2]; 1 h p.i.): 8.47 ± 4.09 % ID/g | logDpH 7.4 [3]: –2.00

O=C(O)CCC(NC(=O)NC(CCCCNC(=O)C(Cc1ccc2ccccc2c1)NC(=O)C1CCC(CNC(=O)C(CCCCNC(=S)Nc2ccc3c(c2)C(=O)OC32c3ccc(O)cc3Oc3cc(O)ccc32)NC(=O)C(CCC(=O)O)NC(=O)C(CCC(=O)O)NC(=O)CN2CCN(CC(=O)O)CCN(CC(=O)O)CCN(CC(=O)O)CC2)CC1)C(=O)O)C(=O)O (stereo not drawn) [PSMA-923, Glu-urea-Lys-2-Nal-Chx-Lys(Fluorescein)-E2-DOTA] ({DOTA}-EEK(FITC)[X1][2Nal]-X2; configuration not given here)
Specifically Cell Surface Bound (LNCaP cells [4]): 9.82 ± 0.67 %AR/10^5 Cells | Specifically Internalized (LNCaP cells [4]): 21.55 ± 9.24 %AR/10^5 Cells | Lipophilicity logDpH 7.4 n-octanol/PBS [5]: -2.16 ± 0.04 | Ki (PSMA): 5.95 ± 1.99 nM | IC50 (PSMA): 7.14 ± 1.95 nM

[^68Ga]Ga-Glu-urea-Lys-HBED-CC-IRDye800CW
tumor enhancement after dye conjugation [2]: significantly higher tumor enhancement

O=C([O-])CN1CCN(CC(=O)[O-])CCN(CC(=O)NCC2CCC(C(=O)NC(Cc3ccc4ccccc4c3)C(=O)NCCCCC(NC(=O)NC(CCC(=O)O)C(=O)O)C(=O)O)CC2)CCN(CC(=O)[O-])CC1.[177Lu+3] (stereo not drawn) [[^177Lu]Lu-PSMA-617]
patients with PSA decline greater than 50% [6]: half of the patients | patients with PSA decline greater than 80% [6]: 27% | overall survival [7]: significantly improves overall survival | tolerability of the treatment regimen [7]: very well-tolerated

CC1(C)C(=CC=C2CCCC(C=CC3=[N+](CCCCCC(=O)[O-])c4ccc(S(=O)(=O)[O-])cc4C3(C)C)=C2Oc2ccc(S(=O)(=O)[O-])cc2)N(CCCCS(=O)(=O)[O-])c2ccc(S(=O)(=O)[O-])cc21.[Na+].[Na+].[Na+].[Na+] [IRDye800CW]
absorption maximum [8]: 775 nm | emission maximum [8]: 796 nm

O=C(O)CCC(NC(=O)NC(CCCCNC(=O)C(Cc1ccc2ccccc2c1)NC(=O)C1CCC(CNC(=O)C(CCCCNC(=O)CN2CCN(CC(=O)O)CCN(CC(=O)O)CCN(CC(=O)O)CC2)NC(=O)C(CCC(=O)O)NC(=O)C(CCC(=O)O)NC(=S)Nc2ccc3c(c2)C(=O)OC32c3ccc(O)cc3Oc3cc(O)ccc32)CC1)C(=O)O)C(=O)O (stereo not drawn) [PSMA-926, Glu-urea-Lys-2-Nal-Chx-Lys(DOTA)-E2-Fluorescein] ({FITC}-EEK(DOTA)[X1][2Nal]-X2; configuration not given here)
Specifically Cell Surface Bound (LNCaP cells [4]): 10.12 ± 4.85 %AR/10^5 Cells | Specifically Internalized (LNCaP cells [4]): 11.86 ± 5.31 %AR/10^5 Cells | Lipophilicity logDpH 7.4 n-octanol/PBS [5]: -2.13 ± 0.03 | Ki (PSMA): 7.16 ± 2.63 nM | IC50 (PSMA): 8.59 ± 2.57 nM

O=C(O)CCC(NC(=O)NC(CCCCNC(=O)C(Cc1ccc2ccccc2c1)NC(=O)C1CCC(CNC(=O)C(CCCCNC(=O)CN2CCN(CC(=O)O)CCN(CC(=O)O)CCN(CC(=O)O)CC2)NC(=O)C(CCC(=O)O)NC(=S)Nc2ccc3c(c2)C(=O)OC32c3ccc(O)cc3Oc3cc(O)ccc32)CC1)C(=O)O)C(=O)O (stereo not drawn) [PSMA-925, Glu-urea-Lys-2-Nal-Chx-Lys(DOTA)-E1- Fluorescein]
Specifically Cell Surface Bound (LNCaP cells [4]): 2.67 ± 0.95 %AR/10^5 Cells | Specifically Internalized (LNCaP cells [4]): 3.03 ± 2.17 %AR/10^5 Cells | Lipophilicity logDpH 7.4 n-octanol/PBS [5]: -2.05 ± 0.02 | Ki (PSMA): 6.77 ± 3.66 nM | IC50 (PSMA): 8.12 ± 3.59 nM

O=C(O)CCC(NC(=O)NC(CCCCNC(=O)C(Cc1ccc2ccccc2c1)NC(=O)C1CCC(CNC(=O)C(CCCCNC(=S)Nc2ccc3c(c2)C(=O)OC32c3ccc(O)cc3Oc3cc(O)ccc32)NC(=O)CN2CCN(CC(=O)O)CCN(CC(=O)O)CCN(CC(=O)O)CC2)CC1)C(=O)O)C(=O)O (stereo not drawn) [PSMA-921, Glu-urea-Lys-2-Nal-Chx-Lys(Fluorescein)-DOTA]
Specifically Cell Surface Bound (LNCaP cells [4]): 7.06 ± 3.32 %AR/10^5 Cells | Specifically Internalized (LNCaP cells [4]): 15.82 ± 6.18 %AR/10^5 Cells | Lipophilicity logDpH 7.4 n-octanol/PBS [5]: -2.36 ± 0.03 | Ki (PSMA): 4.03 ± 0.95 nM | IC50 (PSMA): 4.83 ± 0.93 nM

O=C(O)CCC(NC(=O)NC(CCCCNC(=O)C(Cc1ccc2ccccc2c1)NC(=O)C1CCC(CNC(=O)C(CCCCNC(=S)Nc2ccc3c(c2)C(=O)OC32c3ccc(O)cc3Oc3cc(O)ccc32)NC(=O)C(CCC(=O)O)NC(=O)CN2CCN(CC(=O)O)CCN(CC(=O)O)CCN(CC(=O)O)CC2)CC1)C(=O)O)C(=O)O (stereo not drawn) [PSMA-922, Glu-urea-Lys-2-Nal-Chx-Lys(Fluorescein)-E1-DOTA]
Specifically Cell Surface Bound (LNCaP cells [4]): 6.33 ± 1.53 %AR/10^5 Cells | Specifically Internalized (LNCaP cells [4]): 13.74 ± 5.75 %AR/10^5 Cells | Lipophilicity logDpH 7.4 n-octanol/PBS [5]: -2.07 ± 0.06 | Ki (PSMA): 5.78 ± 1.32 nM | IC50 (PSMA): 6.93 ± 1.29 nM

[^68Ga]Ga-Glu-urea-Lys-(HE)3-HBED-CC-IRDye800CW
tumor enhancement after dye conjugation [2]: significantly higher tumor enhancement

O=C(O)CCC(NC(=O)NC(CCCCNC(=O)C(Cc1ccc2ccccc2c1)NC(=O)C1CCC(CNC(=O)C(CCCCNC(=O)CN2CCN(CC(=O)O)CCN(CC(=O)O)CCN(CC(=O)O)CC2)NC(=S)Nc2ccc3c(c2)C(=O)OC32c3ccc(O)cc3Oc3cc(O)ccc32)CC1)C(=O)O)C(=O)O (stereo not drawn) [PSMA-924, Glu-urea-Lys-2-Nal-Chx-Lys(DOTA)-Fluorescein]
Specifically Cell Surface Bound (LNCaP cells [4]): 1.11 ± 0.81 %AR/10^5 Cells | Specifically Internalized (LNCaP cells [4]): 1.11 ± 0.94 %AR/10^5 Cells | Lipophilicity logDpH 7.4 n-octanol/PBS [5]: -2.38 ± 0.07 | Ki (PSMA): 3.87 ± 1.76 nM | IC50 (PSMA): 4.64 ± 1.23 nM
